Here are results for 19 compounds from PMC12257397, “Scaffold Hopping Strategy toward New 4‑Aminoquinazolines Active Against Extracellular and Intracellular Mycobacterium tuberculosis” (ACS Medicinal Chemistry Letters, 2025).

In brackets after ≈: the same amount, converted by molar mass.

Assay [1] concerns M. tuberculosis LP-0106898-RM1 (QcrB T313I). The assay is classed as cell-based, Mycobacterium tuberculosis.
Assay [2] deals with M. tuberculosis LP-0497754-RM301, MmpL3 triple mutant (F255L, V646M, F644I). The assay is classed as cell-based, Mycobacterium tuberculosis.
Assay [3] concerns M. tuberculosis QcrB T313I. The note with it: given in Figure 1A; cited from earlier work.
The subject of assay [4] is M. tuberculosis QcrB M342T. The note with it: given in Figure 1A; cited from earlier work.
Assay [5] deals with M. tuberculosis qcrCAB (A178T). The following applies: given in Figure 1A; cited from earlier work.

Regarding `Cc1ccc(CCNc2nc(C)nc3ccc(I)cc23)cc1` [15d], the “MIC QcrBT313I” value in assay [1] was found to be 0.70 µM (≈ 0.282 µg/mL). Further, the “MIC MmpL3 (F255L, V646M, F644I)” value in assay [2] stood at 0.89 µM (≈ 0.359 µg/mL).

On to `CO[C@H]1/C=C/O[C@@]2(C)Oc3c(C)c(O)c4c(O)c(c(/C=N/N5CCN(C)CC5)c(O)c4c3C2=O)NC(=O)/C(C)=C\C=C\[C@H](C)[C@H](O)[C@@H](C)[C@@H](O)[C@@H](C)[C@H](OC(C)=O)[C@@H]1C` [20 (RIF), rifampicin, reference compound], for which the “MIC QcrBT313I” value in assay [1] was 0.010 µM (≈ 0.00823 µg/mL). For the same compound, in assay [2], the “MIC MmpL3 (F255L, V646M, F644I)” value was determined as 0.030 µM (≈ 0.0247 µg/mL).

Regarding `c1ccc(CCCNc2ncnc3ccccc23)cc1` [18e], in assay [1], the “MIC QcrBT313I” value turned out to be 29.0 µM (≈ 7.64 µg/mL). Moreover, in assay [2], the “MIC MmpL3 (F255L, V646M, F644I)” value is 39.0 µM (≈ 10.3 µg/mL).

Consider `Cc1nc(NCCCc2ccccc2)c2ccccc2n1` [18a], for which the “MIC QcrBT313I” value in assay [1] amounted to 1.0 µM (≈ 0.277 µg/mL). For the same compound, the “MIC MmpL3 (F255L, V646M, F644I)” value in assay [2] came out at 1.2 µM (≈ 0.333 µg/mL).

Regarding `Cc1nc(NCCc2ccccc2)c2cc(I)ccc2n1` [9d], the “MIC QcrBT313I” value in assay [1] stood at 0.67 µM (≈ 0.261 µg/mL). Besides, the “MIC MmpL3 (F255L, V646M, F644I)” value in assay [2] is 0.89 µM (≈ 0.346 µg/mL).

Consider `Cc1nc(NCCc2ccc3ccccc3c2)c2cc(Br)ccc2n1` [17c], for which, in assay [1], the “MIC QcrBT313I” value came to 2.2 µM (≈ 0.863 µg/mL). The “MIC MmpL3 (F255L, V646M, F644I)” value in assay [2] turned out to be 2.6 µM (≈ 1.02 µg/mL).

Consider `CCc1ccc(CCNc2nc(C)nc3ccc(I)cc23)cc1` [16d], for which, in assay [1], the “MIC QcrBT313I” value was found to be 1.8 µM (≈ 0.751 µg/mL). For the same compound, in assay [2], the “MIC MmpL3 (F255L, V646M, F644I)” value came out at 2.3 µM (≈ 0.96 µg/mL).

For the compound `COc1ccc(CCNc2nc(C)nc3ccc(I)cc23)cc1` [10d], the “MIC QcrBT313I” value in assay [1] is 1.2 µM (≈ 0.503 µg/mL). The “MIC MmpL3 (F255L, V646M, F644I)” value in assay [2] worked out at 1.5 µM (≈ 0.629 µg/mL).

`Cc1nc(NCCc2ccc(OC(F)(F)F)cc2)c2cc(Br)ccc2n1` [13c]: the “MIC QcrBT313I” value in assay [1] worked out at 4.0 µM (≈ 1.7 µg/mL). Besides, in assay [2], the “MIC MmpL3 (F255L, V646M, F644I)” value came to 5.4 µM (≈ 2.3 µg/mL).

For `Cc1nc(NCCc2ccc(Cl)cc2)c2cc(I)ccc2n1` [11d], the “MIC QcrBT313I” value in assay [1] amounted to 0.80 µM (≈ 0.339 µg/mL). The “MIC MmpL3 (F255L, V646M, F644I)” value in assay [2] turned out to be 1.0 µM (≈ 0.424 µg/mL).

Take `CCc1ccc(CCNc2nc(C)nc3ccc(Br)cc23)cc1` [16c]: in assay [1], the “MIC QcrBT313I” value was 2.4 µM (≈ 0.889 µg/mL). The “MIC MmpL3 (F255L, V646M, F644I)” value in assay [2] came to 3.4 µM (≈ 1.26 µg/mL).

As to `Cc1nc(NCCc2ccc3ccccc3c2)c2cc(I)ccc2n1` [17d], in assay [1], the “MIC QcrBT313I” value was determined as 1.2 µM (≈ 0.527 µg/mL). Moreover, the “MIC MmpL3 (F255L, V646M, F644I)” value in assay [2] is 1.4 µM (≈ 0.615 µg/mL).

For the compound `CCc1nc2ccc(C)cc2n1CCCNc1ccccc1` [2 (FABA)], the “MIC QcrB T313I” value in assay [3] is 8.7 µM (≈ 2.55 µg/mL). In addition, the “MIC QcrB M342T” value in assay [4] is 4.1 µM (≈ 1.2 µg/mL).

On to `FC(F)(F)c1ccc(CCNc2cc(-c3ccccn3)nc3ncnn23)cc1` [1 (TAP)], for which the “MIC QcrB T313I” value in assay [3] was over 20 µM. Moreover, the “MIC QcrB M342T” value in assay [4] is 10 µM (≈ 3.84 µg/mL).

`COc1ccc2nc(C)nc(NCCCc3ccccc3)c2c1` [18b]: the “MIC QcrBT313I” value in assay [1] is 1.3 µM (≈ 0.4 µg/mL). In addition, in assay [2], the “MIC MmpL3 (F255L, V646M, F644I)” value is given as 1.5 µM (≈ 0.461 µg/mL).

Regarding `Cc1nc(NCCc2ccc(OC(F)(F)F)cc2)c2cc(I)ccc2n1` [13d], the “MIC QcrBT313I” value in assay [1] was found to be 5.2 µM (≈ 2.46 µg/mL). For the same compound, the “MIC MmpL3 (F255L, V646M, F644I)” value in assay [2] is on record as 8.3 µM (≈ 3.93 µg/mL).

As to `Cc1nc(NCCCc2ccccc2)c2cc(Br)ccc2n1` [18c], in assay [1], the “MIC QcrBT313I” value is under 0.19 µM. In addition, the “MIC MmpL3 (F255L, V646M, F644I)” value in assay [2] is given as under 0.19 µM.

The IC50 is the midpoint of a concentration-inhibition curve. For the compound `CCc1nc(NCCCc2ccccc2)c2cc(C)sc2n1` [3 (CWHM-1023)], the concentration for half-maximal inhibition (IC50) in assay [5] was over 500 nM.

`Cc1nc(NCCCc2ccccc2)c2cc(I)ccc2n1` [18d]: in assay [1], the “MIC QcrBT313I” value stood at 0.48 µM (≈ 0.194 µg/mL). In assay [2], the “MIC MmpL3 (F255L, V646M, F644I)” value was 0.64 µM (≈ 0.258 µg/mL).
